Laboratory results published in US20230181535A1, “UBIQUITIN-LIGASE INHIBITORS FOR THE TREATMENT OF CANCER” (FUNDACIÓN PROFESOR NOVOA SANTOS, priority 2020, published 2023).
“Also recorded” adds a separate entry of the source.

Legend:
[1] = target: T1, E3 ubiquitin-ligase Hakai (Mus musculus, UniProt Q9JIY2); assay: In vivo Hakai-dependent ubiquitination assay in 293T cells; assay type: cell-based; conditions: vs DMSO
T1 construct: expressed in transfected cells; host or cells: HEK293T
T1 sequence (Q9JIY2 1-491): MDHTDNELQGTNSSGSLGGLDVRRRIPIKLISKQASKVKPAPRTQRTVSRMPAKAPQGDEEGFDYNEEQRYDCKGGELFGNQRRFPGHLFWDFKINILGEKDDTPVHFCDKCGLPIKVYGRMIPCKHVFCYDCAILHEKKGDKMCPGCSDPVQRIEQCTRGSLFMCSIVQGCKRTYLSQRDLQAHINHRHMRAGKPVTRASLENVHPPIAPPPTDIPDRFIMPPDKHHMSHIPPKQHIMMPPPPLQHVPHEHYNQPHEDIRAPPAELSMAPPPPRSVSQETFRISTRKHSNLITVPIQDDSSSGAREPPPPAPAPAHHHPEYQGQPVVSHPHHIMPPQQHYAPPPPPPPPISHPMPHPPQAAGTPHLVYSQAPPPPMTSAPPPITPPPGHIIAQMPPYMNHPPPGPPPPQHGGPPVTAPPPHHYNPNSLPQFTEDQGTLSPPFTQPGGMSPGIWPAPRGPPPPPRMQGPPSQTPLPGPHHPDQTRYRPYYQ
Protocol: For ubiquitination assays, 750.000 HEK293T cells were seeded in 6-well cell culture plates and after 24 h were transfected with 0.25 μg Src, 0.75 μg Flag-Hakai, and 0.5 μg HA-ubiquitin with Lipofectamin 2000 (Invitrogen, UK). Six hours after transfection cells were treated with indicated concentrations of Hakin-1, Hakin-5 or the rest of the compounds tested for 36 h. Whole cell extracts were obtained in lysis buffer (20 mM Tris-HCl pH 7.5, 150 mM NaCl and 1% Triton X-100) containing 10 μg/ml leupeptin, 10 μg/ml aprotinin and 1 mM phenylmethanesulphonyl fluoride (PMSF), supplemented with 10 mM N-ethylmaleimide. Cells were harvested and subjected to western blotting using anti-HA antibody to detect ubiquitination.

[2] = test system: human cryopreserved hepatocytes; assay: Hepatocyte stability, human; assay type: in vitro ADME; conditions: 3 μM
Protocol: Test compound (final substrate concentration 3 μM; final DMSO concentration 0.25%) were pre-incubated at 37° C., prior to the addition of a suspension of cryopreserved hepatocytes (final cell density 0.5×10^6 viable cells/mL in Williams E media supplemented with 2 mM L glutamine and 25 mM HEPES) to initiate the reaction. The reactions were stopped with acetonitrile containing internal standard at the appropriate time points ([…]). The termination plates were centrifuged at 2500 rpm at 4° C. for 30 minute to precipitate the protein. Following the hepatocyte stability assays, the samples were utilized for metabolite profiling. Hepatocyte stability in mouse and human was performed by using the incubation of tested compound (3 μM) with cryopreserved hepatocytes in suspension. Samples were removed at 6 time points over the course of a 60 min experiment and remaining test compound at each time point was analysed by using LC-MS/MS. Then, data was analysed and an intrinsic clearance (CLint) with standard error and half-life (t½) reported.

HT-29 cells = assay: Immunofluorescence of E-cadherin, HT-29; assay type: cell-based, human
Protocol: For western blot analysis, cells were treated with the indicated inhibitors for 48 h and the whole cell extracts were obtained as described previously. Twenty micrograms of lysates were resolved on a 10% polyacrilamide SDS-PAGE followed by western blot analysis performed as previously described. For immunofluorescence assays cells were grown for 24 h on glass coverslips and treated with the indicated inhibitors for 48 h. Cells were fixed with 4% PFA for 15 min, permeabilized with 0.5% […] and incubated with E-cadherin antibody for 2 h. Coverslips were incubated with fluorescein-tagged secondary antibody (Dakopatts, Sweden) for […]. Finally coverslips were mounted with ProLong Gold antifade reagent (LifeTech, UK) and images were taken in epifluorescence microscope (Olympus) using 40× objective. Immunofluorescence of E-cadherin and DNA content analysis for FIGS. 22-23 were performed culturing of HT-29 human colorectal adenocarcinoma cell line in 384-well plates with densities of 3,000 cells per well in a total volume of 25 μl. After the completion of the staining, four images (2×2 array) of each well were taken with Vala Sciences' SIM™ with a 20× objective. Each image was acquired as a SIM Synthetic Focus with a z-stack range of 6 μm with 1 μm steps. The SIM Synthetic Focus feature will compile a “best focus” images from multiple images. One set of SIM Synthetic Focus images were taken in the DAPI channel for Hoechst 33342 staining, and another set of images were taken in the FITC channel for anti-E-cadherin-AlexaFluor488 labeling and analysed by Structured Illumination Microscopy (SIM™) platform to image the cells and Vala's CyteSeer® Cell-Cell Junction Algorithm to quantify the degree of expression and intracellular location of E-cadherin Vala's CyteSeer® Software can also measure relative DNA content by analyzing Total Integrated Intensity (TII) of the Nuclear Image (Ni) on the Nuclear Mask (Nm). This analysis was performed by Vala Science. Twenty compounds from were assayed in a “blinded” manner, at 2 test concentrations in 6 replicate wells for first assay and 3 replicate for second assay.

HT29 cell line = assay: Invasion assay, HT29 (dose/response); assay type: cell-based, human; conditions: for cell invasion: treated 48 h, 1 μM, 10 μM, 50 μM, vs DMSO
Protocol: [The procedure below names another cell line; the source lists this cell line under the same test.] For invasion assays, cells were treated with Hakin-1 or DMSO as vehicle for 48 h using 1% FBS during the last 24 hours. 3×10^5 MDCK, MDCK-Hakai or LoVo cells were seeded in a cell invasion chamber (Cell invasion assay kit, Chemicon International) containing medium with 2% FBS. After 72 hours for MDCK and MDCK-Hakai Invasive and 16 h for LoVo cells, invasive cells invaded that reach the lower chamber containing 30% FBS were fixed and stained with crystal violet (Sigma Aldrich, St Louis, Mo.) following the manufacturer's specifications. For migration assays, HT29 cells were cultured with Hakin-1 or DMSO as vehicle for 48 h, using medium without serum the last 24 h. In the cell migration chamber were seeded 3×10^5 HT29 cells (Cell migration kit, Millipore, Bedford, Mass.) containing medium without serum. After 16 h, migrated cells in the lower chamber containing serum with 30% FBS were stained with crystal violet and counted following the manufacturer's specifications. For both invasion and migration assays cells were counted in five fields photographed with an Olympus microscope using a 20× objective, experiments were performed in triplicates for each condition and the assays were repeated at least three times. Results are expressed as mean±SD.

IC50 (HT29 cell line; Homo sapiens, HT-29, treated 48 h, read-out: concentration at which 50% inhibition of invasion was achieved) [nM]	SMILES	Hakai protein levels ([1]; 293T cells transfected with Src, Flag-Hakai and HA-ubiquitin)	ubiquitination mediated by Hakai ([1]; 293T cells transfected with Src, Flag-Hakai and HA-ubiquitin, western blotting anti-HA)	compound remaining after 60 min [2]	E-cadherin levels at cell-cell contacts (immunofluorescence) (HT-29 cells; 48 h, vs DMSO)	cell invasion (HT29 cell line)	Hakai-induced ubiquitination ([1]; HEK293T cells transfected with Hakai and ubiquitin)	E-cadherin expression at cell-cell contacts (immunofluorescence, Image J) (HT-29 cells; 48 hours, 5-100 μM, vs DMSO vehicle control)
–	O=C(O)c1ccc(-n2nnnc2SCC(=O)c2ccc([N+](=O)[O-])cc2)cc1 [Hakin-1, 4-(5-[2-(4-nitrophenyl)-2-oxoethyl]thiol-1H-tetrazol-1-yl)benzoic acid]	no effect was seen in Hakai protein levels; also recorded: without affecting Hakai protein levels	strongly reduces the ubiquitination mediated by Hakai in a doses dependent-manner; also recorded: specific inhibitor for Hakai-mediated ubiquitination	77.3%	significant increase E-cadherin levels at cell-cell contacts	reduce cell invasion	–	–
~1000	O=C(O)c1ccc(-n2nnnc2SCC(O)c2ccc([N+](=O)[O-])cc2)cc1 (stereo not shown) [MKH1]	–	–	95%-100%	–	reduce cell invasion	reduced ubiquitination at 20 μM and 100 μM	significantly increase expression of E-cadherin
